Experimental data taken from ChEMBL document CHEMBL2016539 (Bioorg Med Chem Lett, 2012).

Experiments:
[1] = Immunosuppressive activity in C57BL/6 mouse T lymphocytes assessed as inhibition of cell proliferation after 72 hrs by MTT assay; type: functional, cell-based; details: C57BL/6, T-cell
[2] = target: Inosine-5'-monophosphate dehydrogenase 2 (Homo sapiens, UniProt P12268); experiment: Inhibition of IMPDH2 using inosine 5'-monophosphate as substrate by spectrophotometry

Row | IC50 [2] [µM] | Structure (SMILES) | IC50 [1] [µM]
1 | 6.43 | COc1c(C)c2c(c(O)c1C/C=C(\C)[C@H](CC(=O)O)O[C@H]1O[C@H](CO)[C@@H](O)[C@H](O)[C@H]1O)C(=O)OC2 [PENICACID B] | > 20
2 |  | COc1c(C)c2c(c(O)c1C/C=C(\C)CCC(=O)O)C(=O)OC2 [MYCOPHENOLIC ACID] | 0.32
3 | 73.2 | COc1c(C)c2c(c(O)c1CC(O)C(C)(O)C(O)CC(=O)O)C(=O)OC2 (centres undefined) [PENICACID C] | > 30
4 | 1.79 | COc1c(C)c2c(c(O)c1C/C=C(\C)[C@@H](O)CC(=O)O)C(=O)OC2 | 1.1
5 | 28.9 | COc1c(C)c2c(c(OC)c1C/C=C(\C)[C@@H](O)CC(=O)O)C(=O)OC2 [PENICACID A] | 2.46
